# Measurements reported in patent publication US20240124528A1, “ANTAGONIST OF INTERLEUKIN-17B RECEPTOR (IL-17RB) AND USE THEREOF” (Academia Sinica, priority 2020, published 2024).
# Experiments:
# IL-17RB = test: Immunoblotting/IP of IL-17B-induced IL-17RB signaling in CFPAC1 cells after peptide pretreatment; assay type: cell-based, human; conditions: CFPAC1 cells pretreated with peptides 30 mins, then rIL-17B 30 mins
# From the text: FIGS. 7A to 7J include charts showing that disruption of the interaction between IL-17RB and MLK4 by the loop peptide blocks oncogenic progression. (FIG. 7A) Peptides TAT48-57 (Control) (SEQ ID NO: 21) and TAT-IL-17RB403-416 (Loop) (SEQ ID NO: 30) used for the following experiments. (FIG. 7B) Immunoblotting analysis of IL-17RB binding to MLK4 with Loop peptide treatment. 293T cells expressing Flag-MLK4 and HA-IL-17RB were pretreated with the control and loop peptides with different dose (0, 0.1, 1, 10, 50, 100 ng/ml) for 30 mins, and then added rIL-17B for 30 mins. The cell lysates were reciprocally co-immunoprecipitated with anti-Flag and anti-HA and blotted with the indicated antibodies or directly immunoblotted with the indicated antibodies as the input controls. (FIG. 7C to FIG. 7F) CFPAC1cells were pretreated with the peptides for 30 mins and then added rIL-17B for 30 mins. The cell lysates were immunoblotted with the indicated antibodies or immunoprecipitated with anti-IL-17RB or control IgG and blotted with the indicated antibodies (FIG. 7C). CFPAC1 cells were pretreated with TAT48-57 or TAT-IL-17RB403-416 (50 ng/ml) 30 mins and then added rIL-17B for two hrs. CCL20 and TFF/mRNA expression of these cells were measured by RT-qPCR (n=3) (FIG. 7D), the same cells were for invasion assay (n=4) (FIG. 7E) and SACF assay (n=4) (FIG. 7F). (FIG. 7G) The scheme of the treatment of transgenic pancreatic cancer EKP mice (LSL-Kras^+/G12D; p53^+/−; Ela-Cre^ERT; plus cerulein) with the Loop peptides. (FIG. 7H) IHC images of pancreases stained with anti-P-Y447 antibody. Scale bars: 50 μm. The pancreas tissues were from EKP mice after treated with the control or loop peptides at Day 42. The Kras^+/+ mice (Kras^+/+; p53^+/−; Ela-Cre^ERT; plus cerulein) were used as the non-cancerous control. Boxes indicate the enlarged areas. (FIG. 7I) The experimental EKP mice (n=7 for each group) were euthanized at Day 56, and the metastatic tumor nodules in the lungs were counted. (FIG. 7J) Kaplan-Meier survival curve plot of the lifespans of the experimental EKP mice (n=7 for each group). […]
# [1] = biological target: T1, interaction between IL-17RB and MLK4 (Homo sapiens, UniProt Q5TCX8); test: Co-immunoprecipitation of IL-17RB and MLK4 after peptide pretreatment and rIL-17B; assay type: cell-based; conditions: 293T cells expressing Flag-MLK4 and HA-IL-17RB; peptides 0, 0.1, 1, 10, 50, 100 ng/ml for 30 mins, then rIL-17B 30 mins
# T1 construct: host or cells: 293T (HEK293T)
# From the text: FIGS. 7A to 7J include charts showing that disruption of the interaction between IL-17RB and MLK4 by the loop peptide blocks oncogenic progression. (FIG. 7A) Peptides TAT48-57 (Control) (SEQ ID NO: 21) and TAT-IL-17RB403-416 (Loop) (SEQ ID NO: 30) used for the following experiments. (FIG. 7B) Immunoblotting analysis of IL-17RB binding to MLK4 with Loop peptide treatment. 293T cells expressing Flag-MLK4 and HA-IL-17RB were pretreated with the control and loop peptides with different dose (0, 0.1, 1, 10, 50, 100 ng/ml) for 30 mins, and then added rIL-17B for 30 mins. The cell lysates were reciprocally co-immunoprecipitated with anti-Flag and anti-HA and blotted with the indicated antibodies or directly immunoblotted with the indicated antibodies as the input controls. […] CCL20 and TFF/mRNA expression of these cells were measured by RT-qPCR (n=3) (FIG. 7D), the same cells were for invasion assay (n=4) (FIG. 7E) and SACF assay (n=4) (FIG. 7F). […] (FIG. 7I) The experimental EKP mice (n=7 for each group) were euthanized at Day 56, and the metastatic tumor nodules in the lungs were counted. […]
# Whole-cell lysates were prepared as previously described (6, 7). […] After extensive washing with diluted lysis buffer (0.01% Triton X-100), IL-17RB and its associated proteins were analyzed by immunoblotting analysis. […]
# T1 sequence (Q5TCX8 whole entry): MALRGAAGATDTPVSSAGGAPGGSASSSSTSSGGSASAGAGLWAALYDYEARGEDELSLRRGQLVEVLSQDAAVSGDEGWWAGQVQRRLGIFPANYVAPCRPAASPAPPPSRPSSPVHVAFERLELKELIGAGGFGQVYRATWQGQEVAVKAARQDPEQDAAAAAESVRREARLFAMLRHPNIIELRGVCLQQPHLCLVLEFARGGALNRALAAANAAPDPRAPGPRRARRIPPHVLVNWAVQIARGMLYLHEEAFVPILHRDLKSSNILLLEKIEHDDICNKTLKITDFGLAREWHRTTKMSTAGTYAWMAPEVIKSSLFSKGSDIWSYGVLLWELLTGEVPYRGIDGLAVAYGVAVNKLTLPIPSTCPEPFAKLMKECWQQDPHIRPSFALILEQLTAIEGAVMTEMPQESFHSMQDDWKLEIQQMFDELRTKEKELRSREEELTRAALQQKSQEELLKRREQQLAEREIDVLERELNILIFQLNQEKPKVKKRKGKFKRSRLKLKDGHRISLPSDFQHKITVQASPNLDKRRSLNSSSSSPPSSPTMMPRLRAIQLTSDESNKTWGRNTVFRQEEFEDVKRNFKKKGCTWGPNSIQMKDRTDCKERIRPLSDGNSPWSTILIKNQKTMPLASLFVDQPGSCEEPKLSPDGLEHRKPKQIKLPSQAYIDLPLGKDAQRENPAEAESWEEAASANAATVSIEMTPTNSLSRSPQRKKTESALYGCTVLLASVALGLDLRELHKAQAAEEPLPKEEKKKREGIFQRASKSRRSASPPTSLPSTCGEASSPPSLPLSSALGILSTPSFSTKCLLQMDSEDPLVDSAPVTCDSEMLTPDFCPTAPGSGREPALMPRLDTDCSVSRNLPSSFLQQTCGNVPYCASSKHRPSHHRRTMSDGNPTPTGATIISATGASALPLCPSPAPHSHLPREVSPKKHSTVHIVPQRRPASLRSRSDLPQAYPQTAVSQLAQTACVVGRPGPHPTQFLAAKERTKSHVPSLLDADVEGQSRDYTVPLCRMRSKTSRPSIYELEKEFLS
sequence,measurement,setting,value
"RKKRRQRRRVCDGTCGKSEGSPS (IL-17RB inhibitory peptide, fusion protein) [loop peptide]",ERK1/2 phosphorylation induced by IL-17B,IL-17RB,abolished
same,tyrosine phosphorylation of IL-17RB induced by IL-17B,IL-17RB,abolished
same,ubiquitination of IL-17RB induced by IL-17B,IL-17RB,abolished
same,interaction between IL-17RB and MLK4 (co-IP),[1],disrupted
